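1) Cells in 96-well plates. 2) Compound, 48 h, 5 concentrations. 3) Linear interpolation between surrounding doses. 4) Unreached endpoint = highest concentration. GI50 = concentration required for 50% inhibition of growth.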 Calls of active or inactive are those of the source. No stated cut-off is given here; in the data, active = GI50 up to about 1.1 µM and inactive = higher. A value given as a limit tells only on which side of the number the result lay.

Test systems include NCI-H23; CCRF-CEM; Malme-3M; UACC-62; UO-31; EKVX; SNB-19; MOLT-4; 786-0; SNB-75; DMS-273; NCI-H226; SF-268; OVCAR-5; SK-OV-3; CAKI-1; SK-MEL-5; MCF7; Hs-578T; MDA-MB-435.
What all share (experiment): inhibition of tumour cell growth, NCI panel, 48 h

On to `CC(=O)Nc1ccc(/C=C/C(=O)c2sc(-n3nc(-c4ccccc4)cc3-c3ccccc3)nc2C)cc1`, for which the GI50 in the assay on NCI-H23 was > 10 µM (inactive); in the assay with CCRF-CEM it was > 10 µM (inactive); in the assay with Malme-3M, > 10 µM (inactive); with UACC-62, > 10 µM (inactive); in the assay with UO-31, > 10 µM (inactive); in the assay with EKVX, 8.99 µM (inactive). For the same molecule, the GI50 in the assay on SNB-19, with MOLT-4, with 786-0, in the assay with SNB-75, with DMS-273 and with NCI-H226 was > 10 µM (inactive) throughout. The GI50 with SF-268 is > 10 µM (inactive); in the assay on OVCAR-5, > 10 µM (inactive); with SK-OV-3, > 10 µM (inactive); in the assay on CAKI-1, > 10 µM (inactive); in the assay with SK-MEL-5, 95.3 µM (inactive).

As for `C=CCC12CC(=O)CCC1c1ccc(OC)cc1C2=O` (stereo not drawn), the GI50 in the assay with NCI-H23, with CCRF-CEM, in the assay on Malme-3M, with UACC-62, with UO-31 and with EKVX was > 100 µM (inactive) in each case. Also, the GI50 with SNB-19, with MOLT-4, in the assay on 786-0, in the assay on SNB-75, with DMS-273 and with NCI-H226 was > 100 µM (inactive) throughout. Further, the GI50 in the assay with SF-268, in the assay with OVCAR-5, in the assay on SK-OV-3, in the assay on CAKI-1 and in the assay on SK-MEL-5 was > 100 µM (inactive) in each case.

`OCC1CC2C=CCC(C2)C1` (stereo not drawn): the GI50 in the assay with NCI-H23, in the assay with CCRF-CEM, in the assay on Malme-3M, with UACC-62, in the assay on UO-31 and in the assay on EKVX was > 100 µM (inactive) throughout. Further, the GI50 in the assay with SNB-19, in the assay with MOLT-4, in the assay on 786-0, in the assay on SNB-75, in the assay with DMS-273 and with NCI-H226 was > 100 µM (inactive) each time. The GI50 in the assay with SF-268, in the assay on OVCAR-5, in the assay on SK-OV-3, with CAKI-1 and in the assay on SK-MEL-5 was > 100 µM (inactive) each time.

Turning to `Cc1cccc(C)c1NC(=O)C(=O)CC(=O)CO`, the GI50 with NCI-H23, in the assay with CCRF-CEM, in the assay with Malme-3M, in the assay with UACC-62, in the assay on UO-31 and in the assay on EKVX was > 100 µM (inactive) in each case. Also, the GI50 in the assay with SNB-19 was > 100 µM (inactive); in the assay on MOLT-4 it was > 100 µM (inactive); in the assay on 786-0, > 100 µM (inactive); in the assay with SNB-75, 73.5 µM (inactive); in the assay on DMS-273, > 100 µM (inactive); in the assay with NCI-H226 it was > 100 µM (inactive). In addition, the GI50 in the assay with SF-268, with OVCAR-5, in the assay with SK-OV-3, in the assay with CAKI-1 and with SK-MEL-5 was > 100 µM (inactive) in each case.

For the molecule `O=C(O)CN(CC(=O)O)Cc1cc(C#Cc2ccc(C#Cc3ccccc3)cc2)cc(CN(CC(=O)O)CC(=O)O)n1`, the GI50 in the assay with NCI-H23 was 32.7 µM (inactive); in the assay on CCRF-CEM, 29.4 µM (inactive); in the assay with Malme-3M it was 31 µM (inactive); in the assay on UACC-62, 12.4 µM (inactive); with MCF7, 16.5 µM (inactive); in the assay with UO-31 it was 5.68 µM (inactive). Further, the GI50 is 20.3 µM (inactive) with EKVX; 46.8 µM (inactive) in the assay with Hs-578T; 5.75 µM (inactive) with SNB-19; 8.91 µM (inactive) in the assay on MOLT-4; 13.1 µM (inactive) with 786-0; 31.6 µM (inactive) with SNB-75. The GI50 with DMS-273 is 7.66 µM (inactive); in the assay on NCI-H226 it was 12.2 µM (inactive); in the assay on SF-268, 12.2 µM (inactive); in the assay on OVCAR-5 it was 26.4 µM (inactive); in the assay on SK-OV-3, 56 µM (inactive); in the assay with CAKI-1, 10.6 µM (inactive). In addition, the GI50 was 27.3 µM (inactive) with SK-MEL-5 and 22.8 µM (inactive) with MDA-MB-435.

Take `COC(=O)C(=O)C1CCCCC(C2=NC3NN=C(N)N3C2=O)C1=O` (stereo not drawn): the GI50 with NCI-H23, in the assay with CCRF-CEM, with Malme-3M, in the assay on UACC-62, in the assay with UO-31 and in the assay with EKVX was > 100 µM (inactive) each time. The GI50 with SNB-19, with MOLT-4, with 786-0, in the assay on SNB-75, in the assay on DMS-273 and in the assay on NCI-H226 was > 100 µM (inactive) throughout. Also, the GI50 in the assay on SF-268, in the assay with OVCAR-5, in the assay on SK-OV-3, in the assay with CAKI-1 and with SK-MEL-5 was > 100 µM (inactive) in each case.

As to `Cc1c(Cl)ccc2c1NC(=O)C2(O)CC(=O)c1ccc(Cl)cc1` (stereo not drawn), the GI50 with NCI-H23 is 54.5 µM (inactive); in the assay with CCRF-CEM it was 14.5 µM (inactive); in the assay on Malme-3M it was 37.8 µM (inactive); with UACC-62, 33.5 µM (inactive); with UO-31, > 100 µM (inactive); in the assay with EKVX, > 55.8 µM (inactive). The GI50 in the assay on SNB-19 is 97.3 µM (inactive); in the assay with MOLT-4, 17.7 µM (inactive); in the assay with 786-0 it was 47.1 µM (inactive); in the assay on SNB-75, 76.2 µM (inactive); in the assay with DMS-273, 48.2 µM (inactive); in the assay on NCI-H226 it was > 55.2 µM (inactive). Further, the GI50 in the assay on SF-268 is > 70.1 µM (inactive); with OVCAR-5, > 100 µM (inactive); with SK-OV-3 it was > 100 µM (inactive); in the assay on CAKI-1 it was > 71.9 µM (inactive); in the assay on SK-MEL-5, 53.3 µM (inactive).

As for `CCNC(=O)COc1ccc(Br)cc1Br`, the GI50 with NCI-H23 is > 100 µM (inactive); in the assay on CCRF-CEM it was > 100 µM (inactive); with Malme-3M it was > 100 µM (inactive); with UACC-62, 33.3 µM (inactive); in the assay on UO-31, > 100 µM (inactive); with EKVX, 1.98 µM (inactive). In addition, the GI50 is 54.7 µM (inactive) in the assay on SNB-19; > 100 µM (inactive) in the assay on MOLT-4; > 100 µM (inactive) in the assay with 786-0; > 100 µM (inactive) with SNB-75; > 100 µM (inactive) in the assay on DMS-273; > 100 µM (inactive) with NCI-H226. Also, the GI50 is > 100 µM (inactive) with SF-268; > 100 µM (inactive) in the assay on OVCAR-5; > 100 µM (inactive) in the assay on SK-OV-3; > 100 µM (inactive) with CAKI-1; 86.5 µM (inactive) in the assay on SK-MEL-5.

For the molecule `COc1cc2c(cc1OC)C(CC1=C(c3ccccc3)CN3CCc4cc(OC)c(OC)cc4C3C1)NCC2` (stereo not drawn), the GI50 with NCI-H23 was 23.1 µM (inactive); with CCRF-CEM, 14.6 µM (inactive); in the assay on Malme-3M, 19.5 µM (inactive); in the assay on UACC-62, 20.4 µM (inactive); with UO-31, 11.1 µM (inactive); in the assay on EKVX it was 21.8 µM (inactive). The GI50 is 19.6 µM (inactive) in the assay on SNB-19; 9.91 µM (inactive) with MOLT-4; 15.7 µM (inactive) with 786-0; 12.5 µM (inactive) with SNB-75; 15.7 µM (inactive) in the assay on DMS-273; 18.9 µM (inactive) in the assay on NCI-H226. Besides, the GI50 in the assay on SF-268 was 15 µM (inactive); in the assay on OVCAR-5 it was 18.5 µM (inactive); with SK-OV-3 it was 28 µM (inactive); in the assay on CAKI-1, 25.7 µM (inactive); with SK-MEL-5, 12.4 µM (inactive).

For `COc1cc(/C=C\c2ccc(SC)cc2)cc(OC)c1OC`, the GI50 is 0.0268 µM (active) in the assay on NCI-H23; 0.0202 µM (active) in the assay with CCRF-CEM; 0.381 µM (active) with Malme-3M; 0.0227 µM (active) with UACC-62; 0.201 µM (active) with MCF7; 0.104 µM (active) in the assay with UO-31. The GI50 with EKVX was 6.97 µM (inactive); in the assay with Hs-578T it was 0.0132 µM (active); with SNB-19, 0.0247 µM (active); in the assay with MOLT-4, 0.0281 µM (active); with 786-0 it was 0.0221 µM (active); with SNB-75, < 0.01 µM (active). Moreover, the GI50 in the assay on DMS-273 was 0.0258 µM (active); with NCI-H226, 0.979 µM (active); with SF-268, 0.0406 µM (active); with OVCAR-5, 1.15 µM (inactive); in the assay on SK-OV-3, 0.0141 µM (active); in the assay with CAKI-1, 0.244 µM (active). Besides, the GI50 is < 0.0152 µM (active) with SK-MEL-5 and < 0.01 µM (active) in the assay on MDA-MB-435.

`Nc1ccc(N)c2c1C(=O)c1c(N)ccc(N)c1C2=O`: the GI50 was > 73.1 µM (inactive) in the assay on NCI-H23; 23.8 µM (inactive) in the assay with CCRF-CEM; > 100 µM (inactive) in the assay on Malme-3M; 58.3 µM (inactive) in the assay with UACC-62; 41.8 µM (inactive) in the assay with UO-31; > 64.9 µM (inactive) with EKVX. Also, the GI50 in the assay with SNB-19 is 47.8 µM (inactive); in the assay with MOLT-4, 25.9 µM (inactive); in the assay on 786-0, 36.9 µM (inactive); with SNB-75, 28.4 µM (inactive); with DMS-273, 39 µM (inactive); with NCI-H226, 14.6 µM (inactive). Further, the GI50 with SF-268 was 45.7 µM (inactive); with OVCAR-5, > 100 µM (inactive); in the assay with SK-OV-3, > 74.5 µM (inactive); in the assay on CAKI-1, 49.9 µM (inactive); with SK-MEL-5, 37.8 µM (inactive).

The values are drawn from ChEMBL document CHEMBL1201862, “PubChem BioAssay data set” (2004).
